Like-named read-outs stand apart in the source and are kept apart here.
How the values were obtained:
[1] = Metabolic stability in liver microsomes, mouse (MLM); type: in vitro ADME, CD-1 mouse; details: 1 µM compound, NADPH; for half-life at 1 µM: CD-1, mouse, liver microsomes, pH 7.4, 0.5 mg/mL protein, read-out: Metabolic Stability T½ (min), MLM
Procedure: (§1) This assay is for determining the stability of test compound in liver microsomes. The study will be conducted in accordance with International Bioethical Standards “World Medical Association Declaration of
(§2) Human, Sprague Dawley Rat, CD-1 mouse, Beagle Dog and Cynomolgus Monkey Liver Microsomes samples purchased from BD Gentest or RILD.
(§3) 0.1 M Potassium phosphate buffer, pH 7.4: • Buffer A: 1.0 L of 0.1 M monobasic Potassium Phosphate buffer containing 1.0 mM EDTA • Buffer B: 1.0 L of 0.1 M Dibasic Potassium Phosphate buffer containing 1.0 mM EDTA • Buffer C (K-phosphate buffer): 0.1 M Potassium Phosphate buffer, 1.0 mM EDTA, pH 7.4 by titrating 700 mL of buffer B with buffer A while monitoring the pH meter
(§4) • Prepare 3× test compound or positive control solutions: 500 µM spiking solution: add 10 µL of 10 mM DMSO stock solution into 190 µL ACN. • 1.5 µM spiking solution in microsomes (0.75 mg/mL): add 1.5 µL of 500 µM spiking solution and 18.75 µL of 20 mg/mL liver microsomes into 479.75 µL of K-phosphate buffer.
(§5) Add 30 µL of 1.5 µM spiking solution containing 0.75 mg/ml microsomes solution to the wells designated for 45 min, 30 min, 15 min, 5 min and 0 min. Pre-incubate the plate at 37° C. for 5 minutes.
(§6) Add 15 µL of NADPH stock solution (6 mM) to all of the wells, and start timing. Immediately, add 135 µL of ACN containing IS to the wells designated as Time 0.
(§7) At 5 min, 15 min, 30 min and 45 min, add 135 µL of ACN containing IS to the wells, respectively.
(§8) After quenching, centrifuge the reaction mixtures at 3220 x g for 10 min.
(§9) Transfer 50 µL of the supernatant from each well into a 96-well sample plate containing 50 µL of ultra pure water (Millipore) for LC/MS analysis.
(§10) The % parent remaining at each incubation time point is calculated by comparing to the peak area ratio (compound peak area/internal standard peak area) at T0 (0 minute incubation). The ln peak area ratio is plotted against time and the gradient of the line is determined. The half-life and metabolism of compounds is calculated based upon a natural log linear regression of the relative peak areas vs time. The half-life and intrinsic clearance (Clint) in microsomes are calculated using the equations below. • In Vitro T ½ (min) = 0.693/Elimination rate of constant (k) • Clint (µL/min/mg of microsomal protein) = (0.693 / In Vitro T ½) (Incubation Volume/ mg of microsomes)

HPK1 = HPK1 (Homo sapiens (Human), UniProt Q92918); assay: HPK1 biochemical assay (ADP-GLO Kinase Assay)
Source text: This example used the ADP-GLO™ Kinase Assay to measure the effect of potential HPK1 inhibitor compounds on HPK1 kinase activity.
The ADP-GLO™ Kinase Assay (Promega Corp., Madison, WI) measures ADP formed from a kinase reaction. According to the manufacture, the ADP formed in a kinase assay is first converted into ATP, which is then used to generate light in a luciferase reaction. The luminescence generated correlates with kinase activity. An exemplary experimental setting is described below, though minor adjustments can be made in individual assays.
Serial 3-fold dilution of compoounds from 10 µM (top concentration) to 0.508 nM (lowest concentration). Positive control is 10 µM Reference + enzyme + substrate. Negative control is 1% DMSO + enzyme + substrate.
40 mM Tris pH7.5; 20 mM MgC12, 0.1 mg/ml BSA, 50 µM DTT Buffer stock
• 1) The compounds were diluted to 1 mM, by mixing 10 µL of 10 mM respective compound stocks with 90 µL of DMSO. • 2) The compounds were then diluted 3-fold for 10 doses (5 µL to 10 µL dilution) by BRAVO. The top compound conc. was 1 mM (100×), DMSO Conc. was 100%. • 3) Transfer 100 nL of each diluted compound sample to 384-well plate (Corning-4512) by ECHO. • 4) Centrifuge the plate at 1,500 rpm for 1 minute.
20 µM ATP, 0.2 µg/µL MBP in Kinase Buffer (final concentration: 10 µM ATP, 0.1 µg/µL MBP)
• 5. Preparation of 2× HPK1 working solution with assay buffer. HPK1 final concentration was 0.6 ng/µL. […] Add 5 µL/well of 2× HPK1 working solution, Centrifuge at 1,500 rpm for 1 minute. • 7. Add 5 µL/well of 2× ATP-Substrate, Centrifuge at 1,500 rpm for 1 minute. • 8. Incubate at 25° C. for 1 hour (or 6 hours for compounds with high potency). • 9. Add 5 µL/well ADP-GLO™ Reagent to stop the kinase reaction and deplete the unconsumed ATP. Centrifuge at 1,500 rpm for 1 minute. Incubate at 25° C. for 40 min. • 10. Add 10 µL of Kinase Detection Reagent to convert ADP to ATP. Centrifuge at 1,500 rpm for 1 minute. Incubate at 25° C. for 40 min. • 11. Record luminescence signal on an Envision plate reader (384-CTG).
The percent (%) inhibition at each concentration of compound is calculated based on and relative to the signal in the High and Low control wells contained within each assay plate. […] The concentrations and % inhibition values for tested compounds were plotted and the concentration of compound required for 50% inhibition (IC50) was determined with a Three-parameter logistic dose response equation. The endpoint value (IC50) for the reference peptide/compound was evaluated in each experiment as a quality control measure. If the endpoint value was within 3-fold of the expected value, then the experiment was deemed acceptable.

[2] = Metabolic stability in liver microsomes, rat (RLM); type: in vitro ADME, Sprague Dawley Rat; details: 1 µM compound, NADPH; for half-life at 1 µM: Sprague Dawley, rat, liver microsomes, pH 7.4, 0.5 mg/mL protein, read-out: Metabolic Stability T½ (min), RLM
Procedure: as §1, §2, §3, §4, §5, §6, §7, §8, §9, §10

[3] = ADP-GLO, 10 µM ATP, MBP substrate, read-out: HPK1 IC50
[4] = Table 12-1, read-out: HPK1 inhibition activities

HPK1, sequence (Q92918 whole entry): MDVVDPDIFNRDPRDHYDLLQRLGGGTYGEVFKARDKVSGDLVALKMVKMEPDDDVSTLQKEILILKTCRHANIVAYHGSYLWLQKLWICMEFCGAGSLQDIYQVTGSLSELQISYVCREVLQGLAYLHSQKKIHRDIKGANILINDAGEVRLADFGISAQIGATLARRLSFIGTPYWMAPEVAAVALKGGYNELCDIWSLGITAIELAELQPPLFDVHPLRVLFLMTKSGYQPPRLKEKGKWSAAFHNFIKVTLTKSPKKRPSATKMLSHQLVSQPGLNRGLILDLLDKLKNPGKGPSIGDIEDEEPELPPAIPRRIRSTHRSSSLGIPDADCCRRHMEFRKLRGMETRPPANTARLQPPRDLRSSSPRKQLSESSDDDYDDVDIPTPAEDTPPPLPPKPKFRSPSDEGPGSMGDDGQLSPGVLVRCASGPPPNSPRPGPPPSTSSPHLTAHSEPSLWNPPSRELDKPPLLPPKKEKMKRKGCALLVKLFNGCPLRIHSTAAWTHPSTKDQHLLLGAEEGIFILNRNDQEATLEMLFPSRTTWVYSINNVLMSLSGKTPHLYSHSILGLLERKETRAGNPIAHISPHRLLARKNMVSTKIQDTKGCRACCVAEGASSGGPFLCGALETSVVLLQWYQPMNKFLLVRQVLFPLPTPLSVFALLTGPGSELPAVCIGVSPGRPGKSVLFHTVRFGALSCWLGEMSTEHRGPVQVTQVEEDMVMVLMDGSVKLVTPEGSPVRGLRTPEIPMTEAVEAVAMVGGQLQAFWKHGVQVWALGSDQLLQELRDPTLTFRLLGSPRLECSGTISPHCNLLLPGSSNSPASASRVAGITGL

Row | half-life at 1 µM [1] | IC50 (HPK1; [3]) | IC50 (HPK1; [4]) | half-life at 1 µM [2] | Metabolic Stability T½ (min), MLM ([1]; 0.5 mg/mL protein) | Metabolic Stability T½ (min), RLM ([2]; 0.5 mg/mL protein) | SMILES
1 | 101 min | 0.2 nM | < 1 nM | 38.4 min | – | – | COc1cc2c(cc1Nc1ncc(Cl)c(N3CC(C)(CC(=O)O)c4ccccc43)n1)CN(C)CC2 (single isomer, unassigned) [Example 2, (R)-2-(1-(5-chloro-2-((6-methoxy-2-methyl-1,2,3,4-tetrahydroisoquinolin-7-yl)amino)pyrimidin-4-yl)-3-methylindolin-3-yl)acetic acid or (S)-2-(1-(5-chloro-2-((6-methoxy-2-methyl-1,2,3,4-tetrahydroisoquinolin-7-yl)amino)pyrimidin-4-yl)-3-methylindolin-3-yl)acetic acid]
2 | – | 0.2 nM | < 1 nM | – | MLM: 86 min | RLM: 23 min | CN1CCc2cc(F)c(Nc3ncc(Cl)c(N4C[C@](C)(CC(=O)O)c5ccccc54)n3)cc2C1 (single isomer, unassigned) [Example 5, (R)-2-[1-[5-chloro-2-[(6-fluoro-2-methyl-3,4-dihydro-1H-isoquinolin-7-yl)amino]pyrimidin-4-yl]-3-methyl-indolin-3-yl]acetic acid or (S)-2-[1-[5-chloro-2-[(6-fluoro-2-methyl-3,4-dihydro-1H-isoquinolin-7-yl)amino]pyrimidin-4-yl]-3-methyl-indolin-3-yl]acetic acid]
3 | 79.4 min | 0.7 nM | < 1 nM | – | – | – | CN1CCc2cc(F)c(Nc3ncc(Cl)c(N4CC(C)(CC(=O)O)c5ccccc54)n3)cc2C1 (centres unmarked) [Example 4, 2-(1-(5-chloro-2-((6-fluoro-2-methyl-1,2,3,4-tetrahydroisoquinolin-7-yl)amino)pyrimidin-4-yl)-3-methylindolin-3-yl)acetic acid]

Continued, compound first:

Row | SMILES | half-life at 1 µM [1] | IC50 (HPK1; [3]) | IC50 (HPK1; [4]) | half-life at 1 µM [2] | Metabolic Stability T½ (min), MLM ([1]; 0.5 mg/mL protein) | Metabolic Stability T½ (min), RLM ([2]; 0.5 mg/mL protein)
4 | COc1cc2c(cc1Nc1ncc(Cl)c(N3CC(C(=O)O)c4ccccc43)n1)CN(C)CC2 (centres unmarked) [Compound 7, reference compound] | > 5000 min | 1 nM | – | 4260 min | – | –
5 | COc1cc2c(cc1Nc1ncc(Cl)c(N3CC(CC(=O)O)c4ccccc43)n1)CN(C)CC2 (centres unmarked) [Compound 8, reference compound] | 145 min | 1.5 nM | – | 48.2 min | – | –
6 | COc1cc2c(cc1Nc1ncc(Cl)c(N3CC(C)(CC(=O)O)c4ccc(F)cc43)n1)CN(C)CC2 (centres unmarked) [Compound 10, reference compound] | 46.1 min | 0.5 nM | – | 17 min | – | –
7 | COc1cc2c(cc1Nc1ncc(Cl)c(N3CC(C)(CC(=O)O)c4ccccc43)n1)CN(C)CC2 (centres unmarked) [Example 1, 2-(1-(5-chloro-2-((6-methoxy-2-methyl-1,2,3,4-tetrahydroisoquinolin-7-yl)amino)pyrimidin-4-yl)-3-methylindolin-3-yl)acetic acid] | 84 min | 0.5 nM | < 1 nM | – | – | –

From US20230339896A1, “HPK1 INHIBITORS AND USES THEREOF” (QILU REGOR THERAPEUTICS INC., priority 2020, published 2023)
